Test results: ChEMBL document CHEMBL1128669, “The furoxan system as a useful tool for balancing "hybrids" with mixed alpha 1-antagonist and NO-like vasodilator activities” (J Med Chem, 1995)

Experiments:
[1] = target: T1, Alpha-1D adrenergic receptor (Rattus norvegicus, UniProt P23944); experiment: Partial affinity towards Alpha-1 adrenergic receptor was assessed on rat aortic strips
T1 sequence (P23944 whole entry): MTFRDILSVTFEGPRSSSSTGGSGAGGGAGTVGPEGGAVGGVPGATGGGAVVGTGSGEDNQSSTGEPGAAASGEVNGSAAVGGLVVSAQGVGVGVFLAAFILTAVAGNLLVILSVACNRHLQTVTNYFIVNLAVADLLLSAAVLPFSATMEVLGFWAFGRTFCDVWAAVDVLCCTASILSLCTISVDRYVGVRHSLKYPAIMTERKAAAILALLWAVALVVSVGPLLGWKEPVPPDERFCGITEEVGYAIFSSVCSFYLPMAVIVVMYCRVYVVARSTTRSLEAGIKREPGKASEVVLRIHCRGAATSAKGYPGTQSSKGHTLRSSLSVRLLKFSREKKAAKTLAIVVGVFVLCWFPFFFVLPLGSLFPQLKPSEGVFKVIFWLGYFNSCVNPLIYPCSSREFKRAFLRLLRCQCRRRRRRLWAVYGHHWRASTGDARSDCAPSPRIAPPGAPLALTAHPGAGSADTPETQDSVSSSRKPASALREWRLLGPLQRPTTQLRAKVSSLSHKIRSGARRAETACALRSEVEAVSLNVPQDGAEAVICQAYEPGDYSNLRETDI

Rattus norvegicus [2] = organism: Rattus norvegicus; experiment: Inhibition of vasodilating activity was assessed on the rat aortic strips in the absence of HbO2 in vitro
Rattus norvegicus [3] = organism: Rattus norvegicus; experiment: Inhibition of vasodilating activity was assessed on the rat aortic strips in the presence of HbO2 in vitro
Rattus norvegicus [4] = organism: Rattus norvegicus; experiment: Inhibition of vasodilating activity was assessed on the epididymal portion of rat vas deferens in the absence of HbO2 in vitro; assay type: functional, organism-based
Rattus norvegicus [5] = organism: Rattus norvegicus; experiment: Inhibition of vasodilating activity was assessed on the epididymal portion of rat vas deferens in the presence of HbO2 in vitro; assay type: functional

Structure (SMILES) | pA2 [1] | IC50 (Rattus norvegicus [2]) [nM] | IC50 (Rattus norvegicus [3]) [nM] | IC50 (Rattus norvegicus [4]) [nM] | IC50 (Rattus norvegicus [5]) [nM]
COc1cc2nc(N3CCN(C(=O)c4no[n+]([O-])c4C#N)CC3)nc(N)c2cc1OC | 8.04 | 9.7 | 81 | – | –
COC(=O)c1c(C(=O)N2CCN(c3nc(N)c4cc(OC)c(OC)cc4n3)CC2)no[n+]1[O-] | 8.55 | 630 | – | – | –
COc1cc2nc(N3CCN(C(=O)c4no[n+]([O-])c4C(N)=O)CC3)nc(N)c2cc1OC | 8.25 | 2500 | – | – | –
COc1cc2nc(N3CCC(S(=O)(=O)c4no[n+]([O-])c4-c4ccccc4)CC3)nc(N)c2cc1OC | 8.96 | – | – | 52 | 610
COc1cc2nc(N3CCC(S(=O)(=O)c4nonc4-c4ccccc4)CC3)nc(N)c2cc1OC | 9.17 | – | – | – | –
COc1cc2nc(N3CCC(S(=O)(=O)c4c(-c5ccccc5)no[n+]4[O-])CC3)nc(N)c2cc1OC | 8.49 | – | – | 95 | 700
